Tests used:
[1] = biological target: T1, CaMKII (Rattus norvegicus, UniProt P11275); test: Reconstituted enzyme assay, CaMKII; assay type: biochemical; settings: γ-[32P]-ATP, synthetic peptide substrate; mean ± SEM; read-out: IC50 CaMKII
T1 construct: purchased New England Biolabs
Experimental: (§1) [table] […] The rationale for using BV-2 cells in high throughput screening was the paucity of well-characterized human microglial cell lines, and the relevant activation responses and signaling pathways reflect those seen in human and rodent primary microglial cultures. Compounds were tested for their effects on NO accumulation in conditioned media of LPS-stimulated BV-2 cells by measurement of nitrite production by the Griess assay as a read-out for iNOS activity, as described previously. Stock solutions of compounds were prepared in dimethylsulfoxide (DMSO) or in water. When stock solutions were prepared in DMSO, control wells contained the same final concentration of DMSO as the compound-containing wells. […] Solutions of compounds for cell treatments were diluted to a 10× final concentration by dilution of stock solutions in αMEM media. […] Reconstituted enzyme assays were done as described s. The sources of protein kinases were: bovine heart PKA from Promega, rat brain PKC from Calbiochem, rat CaMKII from New England Biolabs, chicken gizzard MLCK prepared as described, and a p38 MAP kinase kit containing recombinant Xenopus p38-MAPK and its human substrate from Upstate Biotechnology. The catalytic domains of these protein kinases retain a high level of amino acid sequence identity across mammalian species, consistent with the lack of documented major differences across species for the in vitro catalytic activity of a given kinase.

[2] = biological target: T2, p38 MAPK (Xenopus laevis, UniProt P47812); test: Reconstituted enzyme assay, p38 MAPK; assay type: biochemical; settings: γ-[32P]-ATP, synthetic peptide substrate
T2 construct: purchased Upstate Biotechnology
T2 sequence (P47812 whole entry): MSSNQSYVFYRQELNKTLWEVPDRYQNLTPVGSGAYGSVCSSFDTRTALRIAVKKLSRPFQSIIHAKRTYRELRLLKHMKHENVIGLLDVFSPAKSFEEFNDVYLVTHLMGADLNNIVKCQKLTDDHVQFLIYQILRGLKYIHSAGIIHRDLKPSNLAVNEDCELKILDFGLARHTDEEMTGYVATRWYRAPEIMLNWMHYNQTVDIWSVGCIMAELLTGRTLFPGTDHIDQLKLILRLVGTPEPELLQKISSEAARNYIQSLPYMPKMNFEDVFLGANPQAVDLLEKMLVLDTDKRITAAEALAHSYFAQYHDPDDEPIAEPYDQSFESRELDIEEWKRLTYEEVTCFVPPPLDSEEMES
Experimental: as §1, with “The catalytic domains of these protein kinases retain a high level of amino acid sequence identity across mammalian species, consistent with the lack of documented major differences across species for the in vitro catalytic activity of a given kinase.” left out

[3] = biological target: T3, myosin light chain kinase (MLCK) (Gallus gallus, UniProt P11799); test: Reconstituted enzyme assay, MLCK; assay type: biochemical, chicken; settings: γ-[32P]-ATP, synthetic peptide substrate; mean ± SEM; read-out: IC50 MLCK
T3 construct: chicken gizzard MLCK prepared as described; from tissue; host or cells: chicken gizzard
T3 sequence (P11799 935-1906): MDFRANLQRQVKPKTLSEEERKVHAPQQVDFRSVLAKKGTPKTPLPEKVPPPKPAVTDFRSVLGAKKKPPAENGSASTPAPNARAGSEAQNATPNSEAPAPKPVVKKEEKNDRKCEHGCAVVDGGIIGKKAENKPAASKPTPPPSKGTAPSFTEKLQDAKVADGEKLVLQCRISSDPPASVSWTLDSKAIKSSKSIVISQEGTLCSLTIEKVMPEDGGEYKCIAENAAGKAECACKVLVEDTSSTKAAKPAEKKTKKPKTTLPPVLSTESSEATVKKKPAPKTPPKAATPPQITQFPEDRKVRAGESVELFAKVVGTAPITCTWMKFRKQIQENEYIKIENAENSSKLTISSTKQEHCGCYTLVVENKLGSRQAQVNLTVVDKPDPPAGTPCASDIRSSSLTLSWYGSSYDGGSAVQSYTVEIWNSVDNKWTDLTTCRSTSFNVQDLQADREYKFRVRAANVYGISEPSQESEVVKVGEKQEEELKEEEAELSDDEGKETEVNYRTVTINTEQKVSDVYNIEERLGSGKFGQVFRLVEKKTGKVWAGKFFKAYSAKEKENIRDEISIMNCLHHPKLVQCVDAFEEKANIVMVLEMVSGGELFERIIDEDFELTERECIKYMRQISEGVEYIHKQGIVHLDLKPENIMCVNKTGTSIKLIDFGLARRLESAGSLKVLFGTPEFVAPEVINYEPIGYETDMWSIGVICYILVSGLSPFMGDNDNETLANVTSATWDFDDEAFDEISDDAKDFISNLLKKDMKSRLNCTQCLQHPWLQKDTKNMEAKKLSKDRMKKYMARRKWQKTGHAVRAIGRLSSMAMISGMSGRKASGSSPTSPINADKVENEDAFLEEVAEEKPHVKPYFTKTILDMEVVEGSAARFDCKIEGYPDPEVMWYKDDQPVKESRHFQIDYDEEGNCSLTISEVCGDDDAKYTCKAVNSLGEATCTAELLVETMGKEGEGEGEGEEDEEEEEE
Experimental: as §1

[4] = biological target: protein kinase C (PKC); test: Reconstituted enzyme assay, PKC; assay type: biochemical, rat; settings: γ-[32P]-ATP, synthetic peptide substrate; read-out: IC50 PKC
Experimental: as §1

[5] = biological target: T4, protein kinase A (PKA) (Bos taurus, UniProt P00517); test: Reconstituted enzyme assay, PKA; assay type: biochemical, bovine; settings: γ-[32P]-ATP, synthetic peptide substrate
T4 construct: bovine heart PKA from Promega; purchased Promega; host or cells: bovine heart
Experimental: as §1, with “The catalytic domains of these protein kinases retain a high level of amino acid sequence identity across mammalian species, consistent with the lack of documented major differences across species for the in vitro catalytic activity of a given kinase.” left out

[6] = system: BV-2 microglial cells; test: Cell-based screen for inhibition of LPS-stimulated NO release (Griess assay); design: species or system murine; settings: LPS-stimulated BV-2 cells, 24 hr, nitrite in conditioned media
Experimental: FIG. 1. Cell-based screen for inhibition of LPS-stimulated NO release. […] Inhibition is expressed as percent control, where the control is the NO accumulation from cells stimulated with LPS alone.
The rationale for using BV-2 cells in high throughput screening was the paucity of well-characterized human microglial cell lines, and the relevant activation responses and signaling pathways reflect those seen in human and rodent primary microglial cultures. Compounds were tested for their effects on NO accumulation in conditioned media of LPS-stimulated BV-2 cells by measurement of nitrite production by the Griess assay as a read-out for iNOS activity, as described previously. Stock solutions of compounds were prepared in dimethylsulfoxide (DMSO) or in water. When stock solutions were prepared in DMSO, control wells contained the same final concentration of DMSO as the compound-containing wells. […] Solutions of compounds for cell treatments were diluted to a 10× final concentration by dilution of stock solutions in αMEM media. The commercially available drugs tested were: compound 5 (KN93 from Alexis); compound 6 (pyrrolidinedithiocarbamate or PDTC from Sigma), compound 7 (SB203580 from Alexis Corporation), compound 8 (PD98059 from Alexis Corporation), and compound 9 (UO126 from Cell Signaling). […] Respectively, Western blots of cell lysates were done with the following antibodies: monoclonal anti-iNOS (1:1000 dilution, Transduction Labs); polyclonal anti-rat IL-1β (1:1000 dilution, R&D Systems, Inc.); monoclonal anti-glial fibrillary acidic protein (GFAP) (1:[…] dilution, Sigma); polyclonal anti-rat alioE (1:15,000 dilution) prepared as described; polyclonal anti-COX-2 (1:500 dilution) and monoclonal anti-phosphoATF2 (1:1000 dilution) from Santa Cruz Biotechnology, polyclonal anti-phosphoCREB (1:1000 dilution), and polyclonal anti-phosphop38 MAPK (1:1000 dilution). Reconstituted enzyme assays were done as described s. The sources of protein kinases were: bovine heart PKA from Promega, rat brain PKC from Calbiochem, rat CaMKII from New England Biolabs, chicken gizzard MLCK prepared as described, and a p38 MAP kinase kit containing recombinant Xenopus p38-MAPK and its human substrate from Upstate Biotechnology. The catalytic domains of these protein kinases retain a high level of amino acid sequence identity across mammalian species, consistent with the lack of documented major differences across species for the in vitro catalytic activity of a given kinase.
FIG. 4. Cell-based screen for functional effects of synthetic compounds on LPS-stimulated NO release from BV-2 cells. BV-2 cells were incubated for 24 hr with LPS (500 ng/ml) in the presence of increasing concentrations of: A) MW01-070C; B) MW01-026Z; C) MW01-118Z; D) MW01-119Z; E) MW01-051Z; F) MW01-160Z; G) MW01-196A; H) MW01-024Z; I) SB203580; J) PDTC; K) U0126; L) PD98059. The nitrite levels in conditioned media were determined. Inhibition is expressed as percentage of control values, where the control is the nitrite level in cells stimulated with LPS alone.
Compounds were tested for their effects on NO production by LPS-stimulated BV-2 cells as previously described [Mirzoeva, S., Koppal, T., Petrova, T. V., Lukas, T. J., Watterson, D. M., and Van Eldik, L. J. (1999) Brain Res. 844, 126-134]. The levels of nitrite, a stable NO metabolite, in conditioned media were determined by the Griess assay as previously described [Hu, J., Castets, F., Guevara, J. L., and Van Eldik, L. J. (1996) J. Biol. Chem. 271, 2543-2547]. Stock solutions of compounds were prepared in DMSO or in water. When stock solutions were prepared in DMSO, control wells contained the same final concentration of DMSO as the compound-containing wells. Solutions of compounds for cell treatments were diluted to a 10× final concentration by dilution of stock solutions of drugs in αMEM media.

T1 sequence (P11275 1-325 limits assumed): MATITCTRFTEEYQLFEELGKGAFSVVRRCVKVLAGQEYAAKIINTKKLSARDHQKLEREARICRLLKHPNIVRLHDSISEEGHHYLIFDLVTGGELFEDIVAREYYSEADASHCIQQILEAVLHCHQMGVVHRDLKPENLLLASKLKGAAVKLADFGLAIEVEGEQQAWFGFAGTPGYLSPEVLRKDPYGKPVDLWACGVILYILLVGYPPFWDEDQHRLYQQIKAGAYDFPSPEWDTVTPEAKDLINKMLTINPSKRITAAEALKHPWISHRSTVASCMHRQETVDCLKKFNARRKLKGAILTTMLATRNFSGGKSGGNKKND

IC50 [1]: 9.7 ± 1.9 µM
IC50 [2]: > 100 µM
IC50 [3]: > 100 µM
IC50 [4]: > 100 µM
IC50 [5]: > 100 µM
SMILES: N=c1cc2c(nn1CCCCCCCCCCC(=O)N1CCN(c3ncccn3)CC1)-c1ccccc1CC2 [MW01-070C]
inhibition of NO accumulation by activated glia [6]: more effective
inhibition of NO accumulation by activated glia ([6]; listed as 1): most active compound

From patent publication US7888357B2, “Anti-inflammatory and protein kinase inhibitor compositions and related methods for downregulation of detrimental cellular responses and inhibition of cell death” (Northwestern University, priority 2001, dated 2011)
